Patent US12404304B1, “Telomerase reverse transcriptase (TERT) expression enhancing compounds and methods for using the same” (Sierra Sciences, LLC, priority 2007, dated 2025)
Like-named read-outs stand apart in the source and are kept apart here.

Legend:
[1] = system: human TERT expression (hTERT mRNA); experiment: Quantitative real-time RT-PCR of hTERT mRNA expression (Ct, transcripts) in compound-treated cells; type: cell-based
Procedure, shortened: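 Read-out is cycle threshold, the cycle at which probe fluorescence released by Taq 5′-nuclease activity crosses a set level; Ct falls as hTERT mRNA rises. cDNA of treated and untreated cells was compared, with starting transcripts quantified against a known-cDNA standard curve.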

viable cells in culture = experiment: Cell viability assay (CellTiter-Glo Luminescent Cell Viability Assay, ATP quantitation, percent of vehicle control)

| Compound | Average Number of hTERT Transcripts ([1]; quantitative real-time RT-PCR) | Average Cell Viability after 24 Hours (% DMSO) (viable cells in culture) | Average Number of hTERT Transcripts [1] |
| --- | --- | --- | --- |
| COc1ccc(Br)cc1CNC(=O)Cn1ncc2c(=O)oc3ccccc3c21 [compound 1328] | 5.42 | 71.81 |  |
| O=C(Cn1c(=O)oc2ccccc21)Nc1cc(Cl)ccc1Cl [compound 1429] |  | 83.97 | 13.70 |
| Cc1ccc(-n2c(=O)oc3ccc(Cl)cc3c2=O)cc1 [compound 1241] | 39.79 | 77.91 |  |
| O=c1cc(Cc2ccccc2)[nH]c2c(-c3ccc(Cl)cc3)cnn12 [compound 1149] | 91.14 | 87.19 |  |
| O=C(CSc1ccc(-c2ccccn2)nn1)Nc1ccc2c(c1)OCO2 [compound 1255] | 56.91 | 76.32 |  |
| O=C(OCc1ccc(Cl)cc1Cl)c1ccc(-c2nnc(-c3ccccc3)o2)cc1 [compound 1525] |  | 83.30 | 7.73 |
| Cc1ccc(N2CC(C(=O)N3CCCC3)CC2=O)c(C)c1 (stereo not drawn) [compound 1365] | 10.67 | 99.89 |  |
| CCOC(=O)c1ccc(Nc2nc3nonc3nc2N(CC)CC)cc1 [compound 1228] | 48.23 | 73.46 |  |
| CCOC(=O)c1cc(NC(=O)N(C(C)C)C(C)C)c(C)nc1C [compound 1342] | 4.48 | 103.16 |  |
| CN1CCN(CCCNC(=O)c2cc(-c3cccs3)on2)CC1 [compound 1514] |  | 98.72 | 102.98 |
| CCCc1cc(=O)n2ncc(-c3cccc(Br)c3)c2[nH]1 [compound 1486] |  | 73.20 | 51.80 |
| COc1cc(NS(=O)(=O)c2cc(Cl)ccc2Cl)c2ncccc2c1 [compound 1026] | 11.55 | 52.03 |  |
| CCCCN1C(C(=O)c2ccccc2)=C(OC(=O)c2ccco2)c2ccccc2S1(=O)=O [compound 1216] | 5.19 | 42.91 |  |
| O=C(Nc1nc(-c2ccccn2)cs1)C1COc2ccccc2O1 (stereo not drawn) [compound 1204] | 76.87 | 55.98 |  |
| CSCCNC(=O)c1cc(-c2cccs2)on1 [compound 1517] |  | 112.40 | 140.89 |
| Cc1csc(-n2nc(C)c(CCC(=O)Nc3ccc(Br)cc3)c2O)n1 [compound 1133] | 108.84 | 77.29 |  |
| O=C(Nc1cc([N+](=O)[O-])ccc1O)c1cccc(F)c1 [compound 1334] | 31.04 | 75.50 |  |
| CCOC(=O)CSc1nc(C)c(CC)c(C)c1C(N)=O [compound 1348] | 5.97 | 106.19 |  |
| O=C(O)CCC(=O)Nc1nc(-c2ccccn2)cs1 [compound 1490] |  | 111.59 | 3.91 |
| C=CCN(CC=C)CCCOc1ccccc1 [compound 1550] |  | 96.87 | 12.90 |
| CC(C)(C)NC(=O)NCc1nnnn1-c1ccccc1 [compound 1453] |  | 97.19 | 11.03 |
| Cc1ccc(S(=O)(=O)NC(=O)c2ccccc2O)cc1 [compound 1323] | 11.00 | 121.47 |  |
| COC(=O)C1=C(C)Nc2nnnn2C1c1ccccc1OC (stereo not drawn) [compound 1321] | 22.30 | 124.73 |  |
| CCOC(=O)N1CCN(C(=O)CCc2ccc(S(=O)(=O)NCCc3ccccc3)cc2)CC1 [compound 1441] |  | 101.03 | 5.06 |

| Compound | Average Number of hTERT Transcripts ([1]; quantitative real-time RT-PCR) | Average Cell Viability after 24 Hours (% DMSO) (viable cells in culture) | Average Number of hTERT Transcripts [1] |
| --- | --- | --- | --- |
| Cc1nn(C)cc1CNC(=O)C1C2CCC(O2)C1C(=O)O (stereo not drawn) [compound 1220] | 6.37 | 48.07 |  |
| CCc1cc(=O)oc2c(C)c(OC(=O)c3ccccc3)ccc12 [compound 1310] | 5.00 | 105.11 |  |
| NNc1ncnc2sc3c(c12)CCCC3 [compound 1455] |  | 84.96 | 130.06 |
| CCCc1nnc(NC(=O)CSc2nnc(-c3cccs3)o2)s1 [compound 1200] | 198.48 | 74.03 |  |
| O=C(Cc1ccccc1)NNC1=C(C(=O)C(F)(F)F)CCC1 [compound 1278] | 35.46 | 74.57 |  |
| CC(C)C(=O)NC(c1cccs1)c1cc(Cl)c2cccnc2c1O (stereo not drawn) [compound 1090] | 29.08 | 27.89 |  |
| COc1ccccc1-n1c(=O)oc2ccc(Cl)cc2c1=O [compound 1242] | 56.42 | 80.60 |  |
| CC(C)CCNC(=O)c1cc(-c2cccs2)on1 [compound 1511] |  | 75.76 | 88.76 |
| CC(C)COc1ccc(NC(=O)C2CC2)cc1 [compound 1352] | 5.61 | 83.84 |  |
| c1ccc(-c2nc3cc(Oc4ccc5[nH]c(-c6ccccn6)nc5c4)ccc3[nH]2)nc1 [compound 1476] |  | 86.51 | 25.18 |
| CCOC(=O)c1sc(-n2nc(C)c(Cc3ccc(Cl)cc3)c2O)nc1C [compound 1131] | 95.19 | 75.57 |  |
| Cc1nn2c(=O)cc(-c3ccc(F)cc3)[nH]c2c1-c1ccccc1 [compound 1169] | 122.92 | 56.42 |  |
| CC(C)c1cccc(C(C)C)c1NC(=O)c1ccc(OCC(=O)OC2CCCCC2)cc1 [compound 1538] |  | 74.17 | 10.53 |
| CC1=C(C(=O)OC2CCCC2)C(c2cccc(F)c2)C2=C(CC(c3cccs3)CC2=O)N1 (stereo not drawn) [compound 1245] | 8.42 | 79.22 |  |
| CC(C)(C)c1cc(-c2nc3ccccc3[nH]2)c(O)c(-c2nc3ccccc3[nH]2)c1 [compound 1555] |  | 90.08 | 52.10 |
| O=c1c2c([nH]c3c(-c4ccc(Cl)cc4)cnn13)CCCC2 [compound 1159] | 5.22 | 55.24 |  |
| CCCCNC(=O)Cc1c(C)nn(-c2nc(C)c(C)s2)c1O [compound 1124] | 34.96 | 87.04 |  |
| Cc1nnc(SCc2cc(O)n(-c3nc4ccccc4s3)n2)s1 [compound 1141] | 19.39 | 71.38 |  |
| COC(=O)c1cc(OC)c(OC)cc1NC(=S)N1CCN(C)CC1 [compound 1357] | 9.07 | 95.29 |  |
| CSc1nc(C2CC2)cc(-c2ccccc2)c1C#N [compound 1556] |  | 90.02 | 85.40 |
| Cc1ccc(S(=O)(=O)CC(=O)Nc2ncc(-c3ccccn3)s2)cc1 [compound 1512] |  | 81.39 | 102.66 |
| O=C(NCCCn1ccnc1)c1cc(-c2ccccc2)on1 [compound 1522] |  | 80.72 | 345.10 |
| COC(=O)CSc1nnc(NC(=O)c2ccc(Cl)cc2)s1 [compound 1302] | 41.43 | 70.75 |  |
| CCCCOC(=O)c1c(C)oc2ccc(NS(=O)(=O)c3ccc4ccccc4c3)cc12 [compound 1237] | 43.79 | 71.28 |  |
